# Assay results: PubChem BioAssay (NCI)
#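 Cells were grown in 96-well plates and exposed to each compound for 48 hours at five concentrations; endpoints were interpolated linearly between bracketing concentrations, or set to the highest concentration if not reached. TGI: concentration producing complete growth inhibition.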
# Assays:
# Assay in all cases: NCI tumour cell line growth inhibition, 48 h
# [1] = test system: HCT-15 colon
# [2] = test system: KM12 colon
# [3] = test system: UACC-62 melanoma
# [4] = test system: UACC-257 melanoma
# [5] = test system: CCRF-CEM leukemia
# [6] = test system: HCC-2998 colon
# [7] = test system: K-562 leukemia
# [8] = test system: MDA-MB-231 breast
# [9] = test system: HS 578T breast
# [10] = test system: BT-549 breast
# [11] = test system: MCF7 breast
# [12] = test system: SNB-19 CNS
# [13] = test system: RPMI-8226 leukemia
# [14] = test system: SNB-75 CNS
# [15] = test system: M14 melanoma
# [16] = test system: MALME-3M melanoma
# [17] = test system: OVCAR-4 ovarian
# [18] = test system: RXF 393 renal
# [19] = test system: MDA-MB-435
# [20] = test system: SK-MEL-5 melanoma
# [21] = test system: EKVX NSCLC
# [22] = test system: OVCAR-8 ovarian
# [23] = test system: NCI-H23 lung
# [24] = test system: SK-OV-3 ovarian
# [25] = test system: 786-0 renal
# [26] = test system: HOP-92 NSCLC
# [27] = test system: CAKI-1 renal
# [28] = test system: ACHN renal
# [29] = test system: MOLT-4 leukemia
# [30] = test system: SF-539 CNS
# [31] = test system: OVCAR-5 ovarian
# [32] = test system: A498 renal
# [33] = test system: IGROV1 ovarian
# [34] = test system: HL-60(TB) leukemia
# [35] = test system: NCI-H460 lung
# [36] = test system: MDA-N
# [37] = test system: NCI/ADR-RES ovarian
# [38] = test system: HCT-116 colon
# [39] = test system: LOX IMVI melanoma
# [40] = test system: A549 NSCLC
# [41] = test system: UO-31 renal
# [42] = test system: DU-145 prostate
# [43] = test system: COLO 205 colon
# [44] = test system: NCI-H522 lung
# [45] = test system: HT29 colon
# [46] = test system: SN12C renal
# [47] = test system: SK-MEL-2 melanoma
# [48] = test system: PC-3 prostate
# [49] = test system: SF-295 CNS
# [50] = test system: OVCAR-3 ovarian
# [51] = test system: TK-10 renal
# [52] = test system: NCI-H226 lung
# [53] = test system: U251 CNS
# [54] = test system: SK-MEL-28 melanoma
# [55] = test system: HOP-62 NSCLC
# [56] = test system: SF-268 CNS
# [57] = test system: T-47D breast
# [58] = test system: SW-620 colon
# [59] = test system: SR leukemia
smiles,measurement,setting,value
Oc1cccc2cc(Cl)cnc12,TGI,[1],> 100 µM
same,TGI,[2],> 100 µM
same,TGI,[3],> 44.7 µM
same,TGI,[4],81.7 µM
same,TGI,[5],15.5 µM
same,TGI,[6],> 88.4 µM
same,TGI,[7],38.3 µM
same,TGI,[8],> 100 µM
same,TGI,[9],> 83.5 µM
same,TGI,[10],> 100 µM
same,TGI,[11],> 100 µM
same,TGI,[12],> 100 µM
same,TGI,[13],61.6 µM
same,TGI,[14],> 100 µM
same,TGI,[15],> 100 µM
same,TGI,[16],> 100 µM
same,TGI,[17],> 90.6 µM
same,TGI,[18],> 79.6 µM
same,TGI,[19],> 100 µM
same,TGI,[20],99.1 µM
same,TGI,[21],98.9 µM
same,TGI,[22],> 100 µM
same,TGI,[23],> 100 µM
same,TGI,[24],> 100 µM
same,TGI,[25],> 100 µM
same,TGI,[26],> 100 µM
same,TGI,[27],> 100 µM
same,TGI,[28],> 100 µM
same,TGI,[29],27.4 µM
same,TGI,[30],99 µM
same,TGI,[31],> 100 µM
same,TGI,[32],> 77.5 µM
same,TGI,[33],> 83.4 µM
same,TGI,[34],6.27 µM
same,TGI,[35],> 100 µM
same,TGI,[36],> 100 µM
same,TGI,[37],30.3 µM
same,TGI,[38],37.8 µM
same,TGI,[39],> 64.1 µM
same,TGI,[40],> 100 µM
same,TGI,[41],> 100 µM
same,TGI,[42],> 100 µM
same,TGI,[43],> 100 µM
same,TGI,[44],22 µM
same,TGI,[45],> 69.2 µM
same,TGI,[46],> 100 µM
same,TGI,[47],> 100 µM
same,TGI,[48],> 100 µM
same,TGI,[49],> 100 µM
same,TGI,[50],> 31.1 µM
same,TGI,[51],> 100 µM
same,TGI,[52],97.5 µM
same,TGI,[53],> 100 µM
same,TGI,[54],> 100 µM
same,TGI,[55],> 100 µM
same,TGI,[56],> 100 µM
same,TGI,[57],> 68.5 µM
same,TGI,[58],> 100 µM
OC(c1ccc(F)cc1)(c1ccc(F)cc1)C1CC1,TGI,[1],68.2 µM
same,TGI,[2],> 100 µM
same,TGI,[3],> 100 µM
same,TGI,[4],73 µM
same,TGI,[5],95.8 µM
same,TGI,[6],45.7 µM
same,TGI,[7],> 100 µM
same,TGI,[8],> 100 µM
same,TGI,[9],82.6 µM
same,TGI,[10],37.9 µM
same,TGI,[11],> 100 µM
same,TGI,[12],> 100 µM
same,TGI,[13],59.2 µM
same,TGI,[14],> 100 µM
same,TGI,[15],69.2 µM
same,TGI,[16],65.2 µM
same,TGI,[17],79.2 µM
same,TGI,[18],67.7 µM
same,TGI,[19],74.2 µM
same,TGI,[20],30.2 µM
same,TGI,[21],96.2 µM
same,TGI,[22],> 100 µM
same,TGI,[23],35.9 µM
same,TGI,[24],> 100 µM
same,TGI,[25],> 100 µM
same,TGI,[26],97 µM
same,TGI,[27],98.7 µM
same,TGI,[28],> 100 µM
same,TGI,[29],49.2 µM
same,TGI,[30],> 100 µM
same,TGI,[31],> 100 µM
same,TGI,[32],77.8 µM
same,TGI,[33],> 100 µM
same,TGI,[34],47.3 µM
same,TGI,[35],> 100 µM
same,TGI,[36],44.1 µM
same,TGI,[37],58 µM
same,TGI,[38],> 100 µM
same,TGI,[39],48.2 µM
same,TGI,[40],94.2 µM
same,TGI,[41],59.5 µM
same,TGI,[42],> 100 µM
same,TGI,[43],29.7 µM
same,TGI,[44],52.9 µM
same,TGI,[45],65.9 µM
same,TGI,[46],53.6 µM
same,TGI,[47],32.5 µM
same,TGI,[48],53.7 µM
same,TGI,[49],> 100 µM
same,TGI,[50],> 100 µM
same,TGI,[51],> 100 µM
same,TGI,[52],88.1 µM
same,TGI,[53],59.6 µM
same,TGI,[54],> 100 µM
same,TGI,[55],> 100 µM
same,TGI,[56],> 100 µM
same,TGI,[57],> 100 µM
same,TGI,[58],> 100 µM
N=C(c1ccc(-c2cn3cc(C(=N)N4CCCC4)ccc3n2)cc1)N1CCCC1,TGI,[1],> 100 µM
same,TGI,[2],> 100 µM
same,TGI,[3],> 100 µM
same,TGI,[4],> 100 µM
same,TGI,[5],83.1 µM
same,TGI,[7],> 100 µM
same,TGI,[8],> 100 µM
same,TGI,[9],> 100 µM
same,TGI,[10],> 100 µM
same,TGI,[12],> 100 µM
same,TGI,[13],> 100 µM
same,TGI,[14],> 100 µM
same,TGI,[15],> 100 µM
same,TGI,[16],> 100 µM
same,TGI,[17],> 100 µM
same,TGI,[18],> 100 µM
same,TGI,[19],> 100 µM
same,TGI,[20],> 100 µM
same,TGI,[21],> 100 µM
same,TGI,[22],> 100 µM
same,TGI,[23],> 100 µM
same,TGI,[24],> 100 µM
same,TGI,[25],> 100 µM
same,TGI,[26],> 100 µM
same,TGI,[27],> 100 µM
same,TGI,[28],> 100 µM
same,TGI,[29],> 100 µM
same,TGI,[31],> 100 µM
same,TGI,[33],> 100 µM
same,TGI,[34],0.158 µM
same,TGI,[36],> 100 µM
same,TGI,[37],> 100 µM
same,TGI,[38],> 100 µM
same,TGI,[39],> 100 µM
same,TGI,[40],> 100 µM
same,TGI,[41],> 100 µM
same,TGI,[42],> 100 µM
same,TGI,[43],> 100 µM
same,TGI,[44],> 100 µM
same,TGI,[45],> 100 µM
same,TGI,[46],> 100 µM
same,TGI,[47],> 100 µM
same,TGI,[48],> 100 µM
same,TGI,[49],> 100 µM
same,TGI,[50],> 100 µM
same,TGI,[51],> 100 µM
same,TGI,[52],> 100 µM
same,TGI,[53],> 100 µM
same,TGI,[54],> 100 µM
same,TGI,[55],> 100 µM
same,TGI,[56],> 100 µM
same,TGI,[59],> 100 µM
same,TGI,[57],> 100 µM
same,TGI,[58],> 100 µM
